According to article PMC6274316 (Molecules, 2016):
“Also recorded” adds a separate entry of the source. Marks after values point to notes of the source that are not given here.

Assays:
[1] = system: ADP-induced platelet aggregation; assay: Inhibition of ADP-induced platelet aggregation in rats ex vivo (Born's method); design: species or system rat; conditions: for Platelet Aggregation (%): male Wistar rats, ADP 1.0 μM, mean ± SD n = 6; for antiplatelet effect (in words): rat ex vivo
Description: Two hours after administration, rats were anesthetized using sodium pentobarbital and blood samples collected from the abdominal aorta for platelet aggregation tests using Born’s method. ADP (1.0 μM, Sigma-Aldrich, Co., St. Louis, MO, USA) was used as agonist for platelet aggregation. Platelet aggregation was measured using a coagulation analyzer (NJ4, Beijing Precil Instrument Company, Beijing, China).

[2] = rat; cited from earlier work
esterases = conditions: cited from earlier work
[3] = rat, 1000 ng/mL
Description: Blood samples (100 μL) were collected every 10 min over 120 min, mixed with methanol (950 μL), water (50 μL) and an internal standard (IS) solution (diazepam, 100 μL, 100 ng/mL) and centrifuged at low temperature at 13,000 rpm. […] This was carried out using an Agilent 1100 Series HPLC system (degasser, pump, auto sampler, and column oven, Agilent Technologies, Santa Clara, CA, USA) coupled to an AB SCIEX Qtrap 2000 mass spectrometer (Applied Biosystems Sciex, Ottawa, ON, Canada) with an ESI source operated in the positive ion mode. Data acquisition and integration were performed by Analyst software (version 1.3.2, Applied Biosystems Sciex, Ottawa, ON, Canada). Chromatography was performed on a ZORBAX Extend-C18 column (150 mm × 4.6 mm i.d., 5 μm, Agilent Technologies, Santa Clara, CA, USA) maintained at 40 °C using methanol and 0.1% aqueous formic acid (20:80, v/v) as mobile phase delivered at a flow rate of 1.0 mL/min. The injection volume was 20 μL. A 50:50 split of the column eluent was made by means of a T-piece. The mass spectrometer was operated at unit resolution for Q1 and Q3 in the multiple reaction monitoring (MRM) mode with a dwell time of 200 ms per MRM channel. […] QC samples were prepared independently at concentrations of 3, 30, and 800 ng/mL in the same way. […]

CYP2C19 = conditions: cited from earlier work
[4] = ex vivo 2 h after oral dose 7.8 μmol/kg

| melting point [°C] | Compound | Platelet Aggregation (%) [1, 4] [%] | antiplatelet effect (in words) ([1]; oral dose 7.8 μmol/kg) | further results |
| --- | --- | --- | --- | --- |
| 121.7 to 123.1 | [2H]C([2H])([2H])OC(=O)[C@H](c1ccccc1Cl)N1CCc2sc(OC(=O)C=Cc3ccccc3)cc2C1 [Compound 10j, (S)-5-(1-(2-Chlorophenyl)-2-(methoxy-d3)-2-oxoethyl)-4,5,6,7-tetrahydrothieno[3,2-c]pyridin-2-yl cinnamate] | 56.4 ± 6.9 |  |  |
|  | [2H]C([2H])([2H])OC(=O)[C@H](c1ccccc1Cl)N1CCc2sc(OC(=O)CCC)cc2C1 [Compound 10c, (S)-5-(1-(2-Chlorophenyl)-2-(methoxy-d3)-2-oxoethyl)-4,5,6,7-tetrahydrothieno[3,2-c]pyridin-2-yl butyrate] | 29.9 ± 9.5 | potent antiplatelet activity |  |
| 35.8 to 37.6 | [2H]C([2H])([2H])OC(=O)[C@H](c1ccccc1Cl)N1CCc2sc(OC(=O)CCCCCCCCCCC)cc2C1 [Compound 10i, (S)-5-(1-(2-Chlorophenyl)-2-(methoxy-d3)-2-oxoethyl)-4,5,6,7-tetrahydrothieno[3,2-c]pyridin-2-yl laurate] | 49.7 ± 4.0 |  |  |
|  | [2H]C([2H])([2H])OC(=O)[C@H](c1ccccc1Cl)N1CCc2sc(OC(=O)C3CC3)cc2C1 [Compound 10e, (S)-5-(1-(2-Chlorophenyl)-2-(methoxy-d3)-2-oxoethyl)-4,5,6,7-tetrahydrothieno[3,2-c]pyridin-2-yl cyclopro-panecarboxylate] | 24.6 ± 10.0 | anomalously potent; also recorded: potent antiplatelet activity |  |
|  | Cl.[2H]C([2H])([2H])OC(=O)[C@H](c1ccccc1Cl)N1CCc2sc(OC(=O)CC)cc2C1 [Compound 10b, (S)-5-(1-(2-Chlorophenyl)-2-(methoxy-d3)-2-oxoethyl)-4,5,6,7-tetrahydrothieno[3,2-c]pyridin-2-yl propionate hydrochloride] | 24.9 ± 9.7 | potent antiplatelet activity |  |
|  | O=S(=O)(O)O.[2H]C([2H])([2H])OC(=O)[C@H](c1ccccc1Cl)N1CCc2sccc2C1 [Compound 8, Methyl-d3 (S)-2-(2-chlorophenyl)-2-(6,7-dihydrothieno[3,2-c]pyridin-5(4H)-yl)acetate bisulfate] | 36.6 ± 6.6 | potent inhibitors |  |
|  | [2H]C([2H])([2H])OC(=O)[C@H](c1ccccc1Cl)N1CCC2SC(=O)C=C2C1 (stereo partly drawn) [Compound 9, Methyl-d3 (2S)-2-(2-chlorophenyl)-2-(2-oxo-2,6,7,7a-tetrahydrothieno[3,2-c]pyridin-5(4H)-yl)acetate] | 21.2 ± 7.6 | potent antiplatelet agent |  |
|  | Cl.[2H]C([2H])([2H])OC(=O)[C@H](c1ccccc1Cl)N1CCc2sc(OC(=O)c3ccccc3)cc2C1 [Compound 10k, (S)-5-(1-(2-Chlorophenyl)-2-(methoxy-d3)-2-oxoethyl)-4,5,6,7-tetrahydrothieno[3,2-c]pyridin-2-yl benzoate hydrochloride] | 43.6 ± 9.5 |  |  |
|  | COC(=O)[C@H](c1ccccc1Cl)N1CCc2sc(OC(C)=O)cc2C1 [vicagrel, reference compound] | 20.0 ± 9.1 | potent inhibitors | level of AM relative to clopidogrel [2]: four-fold |
|  | [2H]C([2H])([2H])OC(=O)[C@@H](c1ccccc1Cl)N1CCc2sc(OC(C)=O)cc2C1 [Compound R-10a, Methyl-d3 (R)-2-(2-acetoxy-6,7-dihydrothieno[3,2-c]pyridin-5(4H)-yl)-2-(2chlorophenyl)acetate] | 57.4 ± 5.0 | almost inactive |  |
|  | COC(=O)[C@H](c1ccccc1Cl)N1CCc2sccc2C1 [clopidogrel, Clopidogrel] | 59.8 ± 8.4 | low activity | Platelet Aggregation (%) ([1]; ex vivo 2 h after oral dose 78 μmol/kg (clopidogrel bisulfate, active control)): 15.8 ± 8.0 ^b %; antiplatelet effect (in words) ([1]; oral dose 78 μmol/kg): strong inhibitory effect; proportion hydrolyzed by esterases to inactive clopidogrel acid (esterases): 85%; proportion of an oral dose metabolized to inactive metabolites (esterases): more than 90%; time after which concentration was below the limit of detection [3]: 70 min; contribution of CYP2C19 to the first step (to 2-oxoclopidogrel) (CYP2C19): 44.9%; contribution of CYP2C19 to the second step (2-oxoclopidogrel to AM) (CYP2C19): 20.6% |
|  | [2H]C([2H])([2H])OC(=O)[C@H](c1ccccc1Cl)N1CCc2sc(OC(=O)c3ccccc3C(F)(F)F)cc2C1 [Compound 10l, (S)-5-(1-(2-Chlorophenyl)-2-(methoxy-d3)-2-oxoethyl)-4,5,6,7-tetrahydrothieno[3,2-c]pyridin-2-yl 2-(trifluoromethyl)benzoate] | 49.2 ± 4.6 |  |  |
|  | [2H]C([2H])([2H])OC(=O)[C@H](c1ccccc1Cl)N1CCc2sc(OC(C)=O)cc2C1 [Compound 10a, Methyl-d3 (S)-2-(2-acetoxy-6,7-dihydrothieno[3,2-c]pyridin-5(4H)-yl)-2-(2chlorophenyl)acetate] | 17.3 ± 8.2 | potent inhibitors; also recorded: potent antiplatelet activity |  |
| 49.4 to 52.7 | [2H]C([2H])([2H])OC(=O)[C@H](c1ccccc1Cl)N1CCc2sc(OC(=O)CCCCC)cc2C1 [Compound 10g, (S)-5-(1-(2-Chlorophenyl)-2-(methoxy-d3)-2-oxoethyl)-4,5,6,7-tetrahydrothieno[3,2-c]pyridin-2-yl hexanoate] | 35.2 ± 7.7 | potent antiplatelet activity |  |
| 92.1 to 94.8 | [2H]C([2H])([2H])OC(=O)[C@H](c1ccccc1Cl)N1CCc2sc(OC(=O)c3cccnc3)cc2C1 [Compound 10m, (S)-5-(1-(2-Chlorophenyl)-2-(methoxy-d3)-2-oxoethyl)-4,5,6,7-tetrahydrothieno[3,2-c]pyridin-2-yl nicotinate] | 37.4 ± 6.7 | strong potency; also recorded: potent antiplatelet activity |  |
| 146.7 to 149.9 | Cl.[2H]C([2H])([2H])OC(=O)[C@H](c1ccccc1Cl)N1CCc2sc(OC(=O)C(C)C)cc2C1 [Compound 10d, (S)-5-(1-(2-Chlorophenyl)-2-(methoxy-d3)-2-oxoethyl)-4,5,6,7-tetrahydrothieno[3,2-c]pyridin-2-yl isobutyrate hydrochloride] | 36.3 ± 4.5 | potent antiplatelet activity |  |

| Compound | melting point [°C] | Platelet Aggregation (%) [1, 4] [%] | antiplatelet effect (in words) ([1]; oral dose 7.8 μmol/kg) | further results |
| --- | --- | --- | --- | --- |
| [2H]C([2H])([2H])OC(=O)[C@H](c1ccccc1Cl)N1CCc2sc(OC(=O)C(C)(C)C)cc2C1 [Compound 10f, (S)-5-(1-(2-Chlorophenyl)-2-(methoxy-d3)-2-oxoethyl)-4,5,6,7-tetrahydrothieno[3,2-c]pyridin-2-yl pivalate] | 105.4 to 107.1 | 44.7 ± 4.1 |  |  |
| [2H]C([2H])([2H])OC(=O)[C@H](c1ccccc1Cl)N1CCc2sc(OC(=O)C(C)(C)CC)cc2C1 [Compound 10h, (S)-5-(1-(2-Chlorophenyl)-2-(methoxy-d3)-2-oxoethyl)-4,5,6,7-tetrahydrothieno[3,2-c]pyridin-2-yl 2,2-dimethylbutanoate] | 99.4 to 100.3 | 48.5 ± 6.7 |  |  |
